Experimental findings from patent publication US20060008542A1, “Preparation containing a mixture of picrorrhiza and ginkgo for the relief of disease” (priority 2002, published 2006) are described below.

Data set [1] deals with neutrophil respiratory burst (PMA-stimulated neutrophils of peripheral blood). The data set can be described thus: Dihydrorhodamine flow cytometric assay for the effect of plant extracts on neutrophil respiratory burst on peripheral blood. The data set is classed as cell-based, human. How it is done: 3 Dihydrorhodamine Flow Cytometric Assay for the Effect of Plant Extracts on Neutrophil Respiratory Burst on Peripheral Blood An aliquot (200 μg) of every fraction (obtained by the methods described above) was prepared for assay. The left hand column (Extract number) will be the number used to denote that fraction in subsequent studies and corresponds to the Fraction numbers (“BR0000n”) used above reduced to 1,2, etc., by removal of the “BR00000”. Neutrophils kill organisms they have ingested by exposing them to chemicals known as reactive oxygen species (eg. hydrogen peroxide and hydroxyl ions). These are generated by a process known as the neutrophil respiratory burst. […] Respiratory burst occurs when stimulated neutrophils convert molecular oxygen to oxygen radicals through the activation of NADPH-oxidase. In the dihydrorhodamine (DHR) flow cytometric assay, the respiratory burst is used to produce fluorescent molecules that can be detected by flow cytometry. […] The extent of respiratory burst product can be further quantified using the mean fluorescence intensity of the FL-1 channel (MFI). […] Any background fluorescence (as a further control) is estimated using a tube containing only blood and DHR. […]
In general terms: Flow cytometry measures light scatter and fluorescence of single cells or particles in a stream.

Data set [2] in a line: log P (Partition Ratio between Octanol/Water). Particulars: cucurbitacins present in natural Picrorrhiza kurroa.
Description: (§1) By most polar is meant a component (or Component) having log P of −2 or more negative, where P is the Partition Ratio between Octanol/Water.
(§2) The Table immediately below lists the cucurbitacins present in natural Picrorrhiza kurroa together with their log P value.

Usually logP stands for a log measure of how a compound divides between an organic and an aqueous phase. Read a high logP as a more lipophilic compound. The inhibition is the share of the control response that was lost under treatment. Lower therefore signals a response near the control. A word on the log P: it is a log measure of how a compound divides between an organic and an aqueous phase.

Each structure is given as a SMILES string. Some results are limits rather than exact numbers.

Description for physchem: as §1, §2

With `CCCCCCCCCCCCCCCCCC(O)CCCCCCCCC` (centres unmarked) [10-heptacosanol], the logP in the data set “physchem” was no less than 5. For the molecule `CCCCCCCCCCCCCCCCCCCC(O)CCCCCCCCC` (centres unmarked) [10-nonacosanol], in the data set “physchem”, the logP was no less than 5. `CCCCCCCCCCCCCCCCC(O)CCCCCCCCCCCC` (centres unmarked) [13-nonacosanol]: the logP in the data set “physchem” was no less than 5. In data set [1] (Homo sapiens, Neutrophil, apocynin 300 ug/ml, from calibration curve), `COc1cc(C(C)=O)ccc1O` [Apocynin, 4-hydroxy-3-methoxyacetophenone] gave an inhibition at 300 µg/mL of 45%. Besides, in data set [1] (Table 4, apocynin alone), the “Assay Result” value is recorded as 48. This molecule yielded a logP in “physchem” of 1.6. For `O=c1cc(-c2ccc(O)c(-c3c(O)cc(O)c4c(=O)cc(-c5ccc(O)cc5)oc34)c2)oc2cc(O)cc(O)c12` [amentoflavone], in “physchem”, the logP is no less than 5.

`COc1cc(C(C)=O)ccc1O[C@@H]1O[C@H](CO)[C@@H](O)[C@H](O)[C@H]1O` [androsin] registered a lipophilicity (logP) in “physchem” of -1.2. `OCC1=C[C@@H](O)[C@@H]2C=CO[C@@H](O[C@@H]3O[C@H](CO)[C@@H](O)[C@H](O)[C@H]3O)[C@H]12` [aucubin]: in the data set “physchem”, the logP is no more than -2. In the data set “physchem”, `COc1ccc(-c2cc(=O)c3c(O)cc(O)cc3o2)cc1-c1c(O)cc(O)c2c(=O)cc(-c3ccc(O)cc3)oc12` [bilobetin] came in with a logP of no less than 5. On the same count and under the same terms, with `OC[C@H]1O[C@@H](O[C@@H]2OC=C[C@H]3[C@H](O)[C@@H]4O[C@]4(CO)[C@@H]23)[C@H](O)[C@@H](O)[C@@H]1O` [catalpol] the figure was no more than -2. On to `CC(=O)OC(C)(C)/C=C/C(=O)[C@](C)(O)[C@H]1[C@H](O)C[C@@]2(C)[C@@H]3CC=C4[C@H](C[C@H](O)C(=O)C4(C)C)[C@]3(C)C(=O)C[C@]12C` [cucurbitacin B], for which the “log P” value in data set [2] is 2.5 ± 0.6. For `CC(C)(O)/C=C/C(=O)[C@](C)(O)[C@H]1[C@H](O)C[C@@]2(C)[C@@H]3CC=C4[C@@H](C[C@H](O)C(=O)C4(C)C)[C@]3(C)C(=O)C[C@]12C` [cucurbitacin D], the “log P” value in data set [2] was found to be 1.7 ± 0.6.

For the molecule `CC(=O)OC(C)(C)/C=C/C(=O)[C@](C)(O)[C@H]1[C@H](O)C[C@@]2(C)[C@@H]3CC=C4[C@@H](C=C(O)C(=O)C4(C)C)[C@]3(C)C(=O)C[C@]12C` [cucurbitacin E], the “log P” value in data set [2] is recorded as 3.4 ± 0.6. Same read-out and setting: with `CC(C)(O)/C=C/C(=O)[C@](C)(O)[C@H]1[C@H](O)C[C@@]2(C)[C@@H]3CC=C4[C@@H](C[C@H](O)[C@@H](O)C4(C)C)[C@]3(C)C(=O)C[C@]12C` [cucurbitacin F] the figure was 1.9 ± 0.6. Still for that read-out and setting: with `CC(C)(O)/C=C/C(=O)[C@](C)(O)[C@H]1[C@H](O)C[C@@]2(C)[C@@H]3CC=C4[C@@H](C=C(O)C(=O)C4(C)C)[C@]3(C)C(=O)C[C@]12C` [cucurbitacin I] the figure was 2.5 ± 0.5; with `CC(C)(O)CCC(=O)[C@](C)(O)[C@H]1[C@H](O)C[C@@]2(C)[C@@H]3CC=C4[C@@H](C[C@H](O)C(=O)C4(C)C)[C@]3(C)C(=O)C[C@]12C` [cucurbitacin R], 1.9 ± 0.6. In the data set “physchem”, `COc1cc(O)c2c(=O)cc(-c3ccc(OC)c(-c4c(O)cc(O)c5c(=O)cc(-c6ccc(O)cc6)oc45)c3)oc2c1` [ginkgetin] gave a logP of no less than 5. Molecule `COc1ccc(-c2cc(=O)c3c(O)cc(O)c(-c4cc(-c5cc(=O)c6c(O)cc(O)cc6o5)ccc4OC)c3o2)cc1` [isoginkgetin] displayed a logP in “physchem” of no less than 5. `CCCCCCCCCCCCCCCCCCCCCCCCCCCCC` [nonacosane] came in with a logP in the data set “physchem” of no less than 5.

On to `CC[C@H](/C=C/[C@@H](C)[C@H]1CC[C@H]2[C@@H]3CC=C4C[C@@H](O)CC[C@]4(C)[C@H]3CC[C@]12C)C(C)C` [stigmasterol], for which the log partition coefficient (logP) in “physchem” is no less than 5.

In the case of `CCCCCCCCCCCCCCCC(=O)OCC(COC(=O)CCCCCCCCCCCCCCC)OC(=O)CCCCCCCCCCCCCCC` [tripalmitin], the lipophilicity (logP) in “physchem” was no less than 5. The molecule `O=C(/C=C/c1ccc(O)c(O)c1)O[C@H]1[C@@H]2C=CO[C@@H](O[C@@H]3O[C@H](CO)[C@@H](O)[C@H](O)[C@H]3O)[C@@H]2[C@@]2(CO)O[C@@H]12` [verminoside] displayed a logP in the data set “physchem” of no more than -2.
